Earlier results, collected in PMC7395068, “The evolution of strategies to minimise the risk of human drug-induced liver injury (DILI) in drug discovery and development” (Archives of Toxicology, 2020).
Where two headings read alike, the source gives them in different places.

How the values were obtained:
[1] = tested on: HepG2 cells, primary human hepatocytes; conditions: cited from earlier work
[2] = cited from earlier work
HepG2 cells [3] = conditions: In vitro Assay; ref Persson 2013; cited from earlier work
PHH spheroids = conditions: In vitro Assay; ref Vorrink 2018; cited from earlier work
HepG2 cells [4] = conditions: In vitro Assay; ref O'Brien 2006; cited from earlier work
human hepatocytes = conditions: In vitro Assay; ref Xu 2008; cited from earlier work
[5] = ref Chen 2016; cited from earlier work
hLiMTs = conditions: In vitro Assay; ref Proctor 2017; cited from earlier work
PHH = conditions: In vitro Assay; ref Proctor 2017; cited from earlier work
[6] = tested on: isolated mouse liver mitochondria; conditions: In vitro Assay; ref Porceddu 2012; cited from earlier work
rBsep = conditions: cited from earlier work
[7] = tested on: primary human hepatocytes, NIH3T3 fibroblasts, BSEP, CYP3A4; conditions: In vitro Assay; ref Schadt 2015; cited from earlier work
[8] = tested on: THLE-Null and THLE-3A4 cells; conditions: In vitro Assay; ref Gustafsson 2014; cited from earlier work
[9] = In vitro Assay, ref Garside 2014
[10] = In vitro Assay, ref Dawson 2012

CCN(CC)Cc1cc(Nc2ccnc3cc(Cl)ccc23)ccc1O [amodiaquine]
Cluster 1-6 +VE Assay [1, 9]: +VE
In vivo DILI ([2]; […]): +VE
In vivo DILI ([2]; ref Garside 2014): +VE
In vivo DILI ([2]; ref Gustafsson 2014): +VE
In vivo DILI ([2]; ref O'Brien 2006): +VE
In vivo DILI ([2]; ref Persson 2013): +VE
In vivo DILI ([2]; ref Proctor 2017): +VE
In vivo DILI ([2]; ref Schadt 2015): +VE
In vivo DILI ([2]; ref Vorrink 2018): +VE
In vivo DILI ([2]; ref Williams 2019): +VE
Cluser analysis (HepG2 cells [3]): +VE
hLiMTs ATP <20 x Cmax (PHH spheroids): +VE (IC20 < 20 × Cmax.tot cut-off)

COc1ccc(CCN2CCC(Nc3nc4ccccc4n3Cc3ccc(F)cc3)CC2)cc1 [astemizole]
Cluster 1-6 +VE Assay [1, 9]: +VE
Structural based (HCI) (HepG2 cells [4]): -VE
Structural based (HCI) (human hepatocytes): -VE
In vivo DILI ([2]; ref Garside 2014): +VE
In vivo DILI ([2]; ref O'Brien 2006): -VE
In vivo DILI ([2]; ref Xu 2008): -VE

CC[C@H]1OC(=O)[C@H](C)[C@@H](O[C@H]2C[C@@](C)(OC)[C@@H](O)[C@H](C)O2)[C@H](C)[C@@H](O[C@@H]2O[C@H](C)C[C@H](N(C)C)[C@H]2O)[C@](C)(O)C[C@@H](C)CN(C)[C@H](C)[C@@H](O)[C@]1(C)O [azithromycin]
Cluster 1-6 +VE Assay [1, 9]: +VE
DILI +VE (5-8), DILI -VE (-4) [5]: +VE
DILI severity category [5]: vLess-DILI-Concern
Structural based (HCI) (human hepatocytes): -VE
In vivo DILI ([2]; […]): +VE
In vivo DILI ([2]; ref Garside 2014): +VE
In vivo DILI ([2]; ref Xu 2008): -VE

NC(CO)C(=O)NNCc1ccc(O)c(O)c1O (stereo not shown) [benserazide]
Cluster 1-6 +VE Assay [1, 9]: -VE
hLiMTs ATP <100uM (hLiMTs): -VE
PHH ATP <100uM (PHH): -VE
In vivo DILI ([2]; ref Garside 2014): -VE
In vivo DILI ([2]; ref Proctor 2017): -VE
In vivo DILI ([2]; ref Schadt 2015): -VE

CC(=O)Oc1ccc(C(c2ccc(OC(C)=O)cc2)c2ccccn2)cc1 [bisacodyl]
Cluster 1-6 +VE Assay [1, 9]: +VE
in vitro data EC2<=1x Cmax [6]: -VE
in vitro data EC20<=2uM [6]: +VE
Structural based (HCI) (HepG2 cells [4]): +VE
DILI +VE (5-8), DILI -VE (-4) [5]: -VE
DILI severity category [5]: vNo-DILI-Concern
In vivo DILI ([2]; ref Garside 2014): -VE
In vivo DILI ([2]; ref O'Brien 2006): -VE
In vivo DILI ([2]; ref Persson 2013): -VE
In vivo DILI ([2]; ref Porceddu 2012): -VE
Cluser analysis (HepG2 cells [3]): -VE
Structural based (HCI) (HepG2 cells [3]): -VE

CCCCNc1cc(C(=O)O)cc(S(N)(=O)=O)c1Oc1ccccc1 [bumetanide]
Cluster 1-6 +VE Assay [1, 9]: -VE
Structural based (HCI) (human hepatocytes): +VE
hLiMTs ATP <20 x Cmax (PHH spheroids): -VE

Cn1c(=O)c2c(ncn2C)n(C)c1=O [caffeine]
Cluster 1-6 +VE Assay [1]: -VE
in vitro data EC2<=1x Cmax [6]: +VE

O=NN(CCCl)C(=O)NCCCl [carmustine]
Cluster 1-6 +VE Assay [1]: +VE
Inhibition of rBsep cutoff<3 (rBsep; [10]): -VE
Inhibition of rBsep cutoff<1& cmax u>.2 (rBsep): -VE

O=C(O)[C@H]1/C(=C/CO)O[C@@H]2CC(=O)N21 [clavulanate]
Cluster 1-6 +VE Assay [1, 9]: -VE
Cellular toxicity (3T3 cells) [7]: -VE
Combined Assay [7]: -VE
GSH adduct HML [7]: -VE
Hepatocyte cellular toxicity [7]: -VE
MitoTox 3T3 [7]: -VE
TDI CYP3A4 [7]: -VE
hBSEP inhibition [7]: -VE
Inhibition of rBsep cutoff<1& cmax u>.2 (rBsep; [10]): -VE
Inhibition of rBsep cutoff<3 (rBsep; [10]): -VE
In vivo DILI ([2]; […]): -VE
In vivo DILI ([2]; ref Dawson 2012): +VE
In vivo DILI ([2]; ref Garside 2014): +VE
In vivo DILI ([2]; ref Gustafsson 2014): +VE
In vivo DILI ([2]; ref Schadt 2015): +VE
THLE-Null [8]: -VE
THLE-Null/3A4 [8]: -VE

O=C(O)c1cc(=O)c2c(OCC(O)COc3cccc4oc(C(=O)O)cc(=O)c34)cccc2o1 [cromolyn]
Cluster 1-6 +VE Assay [1, 9]: -VE
Inhibition of rBsep cutoff<1& cmax u>.2 (rBsep; [10]): -VE
Inhibition of rBsep cutoff<3 (rBsep; [10]): -VE
Structural based (HCI) (human hepatocytes): -VE

Nc1ccc(S(=O)(=O)c2ccc(N)cc2)cc1 [dapsone]
Cluster 1-6 +VE Assay [1, 9]: +VE
in vitro data EC2<=1x Cmax [6]: +VE
in vitro data EC20<=2uM [6]: -VE
DILI +VE (5-8), DILI -VE (-4) [5]: +VE
DILI severity category [5]: vLess-DILI-Concern
Inhibition of rBsep cutoff<1& cmax u>.2 (rBsep; [10]): -VE
Inhibition of rBsep cutoff<3 (rBsep; [10]): -VE
Structural based (HCI) (human hepatocytes): -VE
In vivo DILI ([2]; […]): +VE
In vivo DILI ([2]; ref Dawson 2012): +VE
In vivo DILI ([2]; ref Garside 2014): +VE
In vivo DILI ([2]; ref Gustafsson 2014): +VE
In vivo DILI ([2]; ref Khetani 2012): +VE
In vivo DILI ([2]; ref Porceddu 2012): +VE
In vivo DILI ([2]; ref Xu 2008): +VE

Cc1nc(Nc2ncc(C(=O)Nc3c(C)cccc3Cl)s2)cc(N2CCN(CCO)CC2)n1 [dasatinib]
Cluster 1-6 +VE Assay [1, 9]: +VE
in vitro data EC2<=1x Cmax [6]: -VE
in vitro data EC20<=2uM [6]: +VE
DILI +VE (5-8), DILI -VE (-4) [5]: +VE
DILI severity category [5]: vLess-DILI-Concern
In vivo DILI ([2]; ref Garside 2014): +VE
In vivo DILI ([2]; ref Porceddu 2012): +VE

CC(=O)O[C@H]1C[C@@]2(C)[C@@H](C[C@@H](O)[C@H]3[C@@]4(C)CC[C@@H](O)[C@@H](C)[C@@H]4CC[C@@]32C)/C1=C(\CCC=C(C)C)C(=O)O [fusidic acid]
Cluster 1-6 +VE Assay [1, 9]: -VE
Inhibition of rBsep cutoff<1& cmax u>.2 (rBsep; [10]): +VE
Inhibition of rBsep cutoff<3 (rBsep; [10]): +VE
THLE-Null [8]: +VE

CCN(CC)CCNc1ccc(CO)c2sc3ccccc3c(=O)c12 [hycanthone]
Cluster 1-6 +VE Assay [1, 9]: +VE
Structural based (HCI) (human hepatocytes): +VE
In vivo DILI ([2]; […]): +VE
In vivo DILI ([2]; ref Garside 2014): +VE
In vivo DILI ([2]; ref Xu 2008): +VE

O=C1c2c(O)ccc(O)c2C(=O)c2c(NCCNCCO)ccc(NCCNCCO)c21 [mitoxantrone]
Cluster 1-6 +VE Assay [1, 9]: +VE
in vitro data EC2<=1x Cmax [6]: -VE
Structural based (HCI) (human hepatocytes): +VE

CNC(=O)Oc1ccc2c(c1)[C@]1(C)CCN(C)[C@@H]1N2C [physostigmine]
Cluster 1-6 +VE Assay [1, 9]: -VE
DILI +VE (5-8), DILI -VE (-4) [5]: -VE
DILI severity category [5]: vNo-DILI-Concern
Inhibition of rBsep cutoff<3 (rBsep; [10]): -VE
Inhibition of rBsep cutoff<1& cmax u>.2 (rBsep): -VE
In vivo DILI ([2]; ref Dawson 2012): -VE
In vivo DILI ([2]; ref Garside 2014): -VE
In vivo DILI ([2]; ref Gustafsson 2014): -VE
In vivo DILI ([2]; ref Vorrink 2018): -VE
THLE-Null [8]: -VE
THLE-Null/3A4 [8]: -VE

CN(CCOc1ccc(CC2SC(=O)NC2=O)cc1)c1ccccn1 (stereo not shown) [rosiglitazone]
Cluster 1-6 +VE Assay [1, 9]: +VE
Structural based (HCI) (HepG2 cells [4]): -VE
hLiMTs ATP <100uM (hLiMTs): +VE (IC50 threshold of 100 µM)
DILI +VE (5-8), DILI -VE (-4) [5]: +VE
DILI severity category [5]: vLess-DILI-Concern
PHH ATP <100uM (PHH): -VE
Inhibition of rBsep cutoff<1& cmax u>.2 (rBsep; [10]): -VE
Inhibition of rBsep cutoff<3 (rBsep; [10]): +VE
Structural based (HCI) (human hepatocytes): -VE
In vivo DILI ([2]; […]): -VE
In vivo DILI ([2]; ref Aleo 2019): +VE
In vivo DILI ([2]; ref Dawson 2012): +VE
In vivo DILI ([2]; ref Garside 2014): +VE
In vivo DILI ([2]; ref Gustafsson 2014): +VE
In vivo DILI ([2]; ref O'Brien 2006): -VE
In vivo DILI ([2]; ref Proctor 2017): +VE
In vivo DILI ([2]; ref Schadt 2015): +VE
In vivo DILI ([2]; ref Vorrink 2018): -VE
In vivo DILI ([2]; ref Williams 2019): +VE
In vivo DILI ([2]; ref Xu 2008): -VE
hLiMTs ATP <20 x Cmax (PHH spheroids): -VE

CCCCNC(=O)NS(=O)(=O)c1ccc(C)cc1 [tolbutamide, reference compound]
Cluster 1-6 +VE Assay [1, 9]: +VE
Structural based (HCI) (HepG2 cells [4]): +VE
Inhibition of rBsep cutoff<1& cmax u>.2 (rBsep; [10]): -VE
Inhibition of rBsep cutoff<3 (rBsep; [10]): -VE
